Drawing on ChEMBL document CHEMBL4373715, “Discovery and Biological Evaluations of Halogenated 2,4-Diphenyl Indeno[1,2-b]pyridinol Derivatives as Potent Topoisomerase IIα-Targeted Chemotherapeutic Agents for Breast Cancer” (J Med Chem, 2019), this text covers IC50 and inhibition for 21 compounds.

A value given as a limit tells only on which side of the number the result lay.

The test system of one assay is HCT-15. The assay is described as follows: Antiproliferative activity against human HCT15 cells measured after 72 hrs by EZ-Cytox assay. The class given is functional, cell-based. To be noted: HCT-15, 72 h.
The subject of a further assay is DU-145. The experiment in a line: Antiproliferative activity against human DU145 cells measured after 72 hrs by EZ-Cytox assay. The class given is functional, cell-based. To be noted: DU-145, 72 h.
The target of assay [1] is T1, DNA topoisomerase 1 (Homo sapiens) (UniProt P11387).
T1 sequence (whole entry): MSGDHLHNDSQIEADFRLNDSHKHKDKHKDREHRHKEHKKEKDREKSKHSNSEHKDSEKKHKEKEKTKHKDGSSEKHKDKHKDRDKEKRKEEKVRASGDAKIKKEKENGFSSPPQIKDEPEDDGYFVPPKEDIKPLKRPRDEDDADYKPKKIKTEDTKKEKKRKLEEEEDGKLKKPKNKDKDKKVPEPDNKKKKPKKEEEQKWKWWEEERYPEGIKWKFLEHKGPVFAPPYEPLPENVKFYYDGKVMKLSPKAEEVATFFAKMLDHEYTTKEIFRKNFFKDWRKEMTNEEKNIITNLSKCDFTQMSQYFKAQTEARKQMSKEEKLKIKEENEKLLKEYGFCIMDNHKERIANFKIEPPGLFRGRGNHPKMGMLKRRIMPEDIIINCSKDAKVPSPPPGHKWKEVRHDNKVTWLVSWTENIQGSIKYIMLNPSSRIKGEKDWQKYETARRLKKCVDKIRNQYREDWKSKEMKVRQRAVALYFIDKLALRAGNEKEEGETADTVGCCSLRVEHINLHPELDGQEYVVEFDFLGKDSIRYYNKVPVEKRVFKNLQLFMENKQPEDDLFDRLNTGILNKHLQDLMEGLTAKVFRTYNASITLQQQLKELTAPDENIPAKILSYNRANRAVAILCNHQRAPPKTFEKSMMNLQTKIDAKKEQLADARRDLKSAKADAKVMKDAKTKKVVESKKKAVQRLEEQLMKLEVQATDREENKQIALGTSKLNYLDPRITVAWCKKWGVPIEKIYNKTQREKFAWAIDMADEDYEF
The assay is described as follows: Inhibition of recombinant human topoisomerase 1-mediated relaxation of supercoiled pBR322 DNA at 100 uM measured after 30 mins by ethidium bromide staining based agarose gel electrophoresis relative to control.

The target in assay [2] is DNA topoisomerase 2-alpha (Homo sapiens) (UniProt P11388). The experiment in a line: Inhibition of recombinant human topoisomerase 2alpha-mediated relaxation of supercoiled pBR322 DNA at 100 uM measured after 30 mins by ethidium bromide staining based agarose gel electrophoresis relative to control.
The next assay deals with HeLa. The assay is described as follows: Antiproliferative activity against human HeLa cells measured after 72 hrs by EZ-Cytox assay. The class given is functional, cell-based.
Another assay deals with T47D. The experiment in a line: Antiproliferative activity against human T47D cells measured after 72 hrs by EZ-Cytox assay. Format: functional, cell-based.
Assay [3] concerns the target DNA topoisomerase 2-alpha (Homo sapiens) (UniProt P11388). The assay is described as follows: Inhibition of recombinant human topoisomerase 2alpha-mediated relaxation of supercoiled pBR322 DNA at 20 uM measured after 30 mins by ethidium bromide staining based agarose gel electrophoresis relative to control.

Sequence of DNA topoisomerase 2-alpha (Homo sapiens) (P11388 whole entry): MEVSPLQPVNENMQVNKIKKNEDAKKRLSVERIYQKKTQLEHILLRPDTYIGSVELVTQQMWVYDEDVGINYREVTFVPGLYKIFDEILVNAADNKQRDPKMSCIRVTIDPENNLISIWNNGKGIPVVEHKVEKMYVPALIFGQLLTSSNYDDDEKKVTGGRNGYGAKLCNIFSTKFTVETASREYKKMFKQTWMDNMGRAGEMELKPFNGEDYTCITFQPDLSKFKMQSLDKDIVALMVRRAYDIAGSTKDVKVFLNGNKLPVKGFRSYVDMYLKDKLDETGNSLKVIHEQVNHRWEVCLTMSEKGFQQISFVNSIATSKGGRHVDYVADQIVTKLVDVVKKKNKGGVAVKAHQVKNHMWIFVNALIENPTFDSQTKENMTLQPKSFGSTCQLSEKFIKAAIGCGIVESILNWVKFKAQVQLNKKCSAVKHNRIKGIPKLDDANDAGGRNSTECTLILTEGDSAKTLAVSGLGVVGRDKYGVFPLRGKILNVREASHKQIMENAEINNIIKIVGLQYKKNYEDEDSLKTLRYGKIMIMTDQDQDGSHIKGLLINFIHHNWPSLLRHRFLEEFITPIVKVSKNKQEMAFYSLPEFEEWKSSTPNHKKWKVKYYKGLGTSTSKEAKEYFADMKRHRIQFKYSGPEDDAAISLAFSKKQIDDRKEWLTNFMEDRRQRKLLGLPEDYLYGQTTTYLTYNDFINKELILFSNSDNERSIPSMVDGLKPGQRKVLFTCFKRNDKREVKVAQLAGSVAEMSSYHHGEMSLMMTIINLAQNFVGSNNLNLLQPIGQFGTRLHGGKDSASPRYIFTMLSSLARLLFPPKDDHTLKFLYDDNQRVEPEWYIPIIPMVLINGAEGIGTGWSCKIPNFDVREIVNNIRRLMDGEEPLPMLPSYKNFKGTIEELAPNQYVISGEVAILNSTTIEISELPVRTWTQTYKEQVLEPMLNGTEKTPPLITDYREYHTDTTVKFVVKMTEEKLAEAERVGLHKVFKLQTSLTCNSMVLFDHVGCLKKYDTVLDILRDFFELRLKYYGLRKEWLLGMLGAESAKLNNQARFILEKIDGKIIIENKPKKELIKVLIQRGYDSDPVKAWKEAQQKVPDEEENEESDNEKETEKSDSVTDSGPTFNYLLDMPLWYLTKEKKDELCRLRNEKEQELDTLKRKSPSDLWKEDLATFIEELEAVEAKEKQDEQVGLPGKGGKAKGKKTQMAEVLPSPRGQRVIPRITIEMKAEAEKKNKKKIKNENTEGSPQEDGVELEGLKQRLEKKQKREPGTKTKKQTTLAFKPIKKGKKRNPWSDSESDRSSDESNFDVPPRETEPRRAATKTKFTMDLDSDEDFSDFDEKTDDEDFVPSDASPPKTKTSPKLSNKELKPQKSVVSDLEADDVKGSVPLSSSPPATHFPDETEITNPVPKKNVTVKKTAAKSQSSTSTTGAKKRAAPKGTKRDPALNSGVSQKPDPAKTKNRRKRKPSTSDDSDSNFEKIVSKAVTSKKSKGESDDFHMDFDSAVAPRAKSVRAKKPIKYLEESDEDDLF

As for `Oc1ccc2c(c1)Cc1c(-c3ccccc3O)cc(-c3ccc(Cl)cc3)nc1-2`, the IC50 came out at 3970 nM in the assay on HCT-15, 650 nM in the assay with DU-145, 3840 nM with HeLa and 620 nM in the assay on T47D. The inhibition in assay [1] is 26.8%; in assay [2], 97.5%; in assay [3], 4.4%.
`Oc1cccc(-c2cc(-c3ccc(Cl)cc3)nc3c2Cc2cc(O)ccc2-3)c1`: the IC50 was 850 nM with HCT-15, 1280 nM in the assay on DU-145, 1090 nM in the assay with HeLa and 1500 nM in the assay with T47D. In addition, the inhibition in assay [1] is 0%; in assay [2], 95%; in assay [3], 11.2%.
Consider `Oc1ccc2c(c1)-c1nc(-c3ccccc3O)cc(-c3ccc(Cl)cc3)c1C2`, for which the half-maximal inhibitory concentration (IC50) in the assay on HCT-15, in the assay on DU-145, in the assay on HeLa and with T47D was over 50000 nM throughout. The inhibition was 2.9% in assay [1], 21.4% in assay [2] and 0% in assay [3].
Take `Oc1ccc2c(c1)Cc1c(-c3ccccc3O)cc(-c3ccccc3Cl)nc1-2`: the IC50 with HCT-15 came out at 2340 nM; in the assay with DU-145 it was 1510 nM; in the assay with HeLa it was 840 nM; with T47D it was 2860 nM. The inhibition in assay [1] came to 11.7%; in assay [2], 70.5%; in assay [3], 8.2%.
For `Oc1ccccc1-c1cc(-c2ccccc2Cl)c2c(n1)-c1c(O)cccc1C2`, the IC50 was 2030 nM with HCT-15, 5670 nM in the assay on DU-145, over 50000 nM in the assay on HeLa and 2930 nM in the assay with T47D. Further, the results for the inhibition in assay [1], in assay [2] and in assay [3] were 23.9%, 56.5% and 1.6%, respectively.
As for `Oc1ccc(-c2cc(-c3ccc(Cl)cc3)c3c(n2)-c2ccc(O)cc2C3)cc1`, the IC50 came out at 18500 nM in the assay with HCT-15, 1430 nM with DU-145, 6830 nM in the assay on HeLa and 1510 nM in the assay with T47D. Also, the values for the inhibition in assay [1], in assay [2] and in assay [3] were 7.7%, 98.1% and 8.9%, respectively.
Consider `Oc1ccc2c(c1)-c1nc(-c3ccccc3)cc(-c3ccccc3)c1C2`, for which the IC50 with HCT-15 amounted to 3130 nM; with DU-145, 3490 nM; in the assay with HeLa, 4380 nM; in the assay on T47D it was 190 nM. The values for the inhibition in assay [1], in assay [2] and in assay [3] were 2.6%, 79.9% and 5.5%, respectively.
On to `Oc1ccc(-c2cc(-c3ccccc3C(F)(F)F)nc3c2Cc2cc(O)ccc2-3)cc1`, for which the IC50 in the assay with HCT-15 amounted to 2430 nM; in the assay on DU-145, 2310 nM; in the assay with HeLa, 2070 nM; with T47D, 1050 nM. Besides, the inhibition in assay [1] is 13.9%; in assay [2], 85.9%; in assay [3] it was 0%.
As for `Oc1ccccc1-c1cc(-c2ccc(Cl)cc2)c2c(n1)-c1cccc(O)c1C2`, the IC50 is over 50000 nM in the assay with HCT-15, 12800 nM in the assay on DU-145, over 50000 nM in the assay on HeLa and over 50000 nM in the assay on T47D. The inhibition in assay [1] was 8.4%; in assay [2] it was 71.6%; in assay [3], 1.5%.
For `Oc1cccc(-c2cc(-c3ccc(C(F)(F)F)cc3)nc3c2Cc2ccc(O)cc2-3)c1`, the IC50 turned out to be 2950 nM with HCT-15, 3180 nM with DU-145, 3630 nM in the assay on HeLa and 1800 nM in the assay on T47D. Besides, the inhibition was 0% in assay [1], 100% in assay [2] and 5.1% in assay [3].
On to `Oc1ccc(-c2cc(-c3ccc(Cl)cc3)nc3c2Cc2cc(O)ccc2-3)cc1`, for which the IC50 in the assay on HCT-15 stood at 770 nM; in the assay with DU-145 it was 1910 nM; with HeLa, 1020 nM; in the assay on T47D it was 1840 nM. Further, the results for the inhibition in assay [1], in assay [2] and in assay [3] were 0%, 100% and 50.2%, respectively.
`Oc1ccc(-c2cc(-c3ccc(Cl)cc3)c3c(n2)-c2cccc(O)c2C3)cc1`: the 50% inhibitory concentration (IC50) with HCT-15 came out at 9100 nM; in the assay on DU-145, 1810 nM; with HeLa, 18300 nM; in the assay on T47D, 12800 nM. Besides, the values for the inhibition in assay [1], in assay [2] and in assay [3] were 1.3%, 97% and 7.5%, respectively.
On to `Oc1ccc2c(c1)Cc1c(-c3ccccc3)cc(-c3ccccc3)nc1-2`, for which the IC50 with HCT-15 is 3370 nM; with DU-145, 3820 nM; with HeLa, 4940 nM; in the assay on T47D, 700 nM. Besides, the values for the inhibition in assay [1], in assay [2] and in assay [3] were 2.1%, 54.2% and 2.1%, respectively.
In the case of `Oc1ccc(-c2cc(-c3ccccc3Cl)nc3c2Cc2ccc(O)cc2-3)cc1`, the IC50 in the assay on HCT-15 was determined as 3040 nM; in the assay with DU-145, 540 nM; in the assay with HeLa, 3220 nM; in the assay with T47D, 950 nM. Also, the inhibition in assay [1] was found to be 0%; in assay [2] it was 80.9%; in assay [3], 19.2%.
`Oc1cccc(-c2cc(-c3cccc(F)c3)nc3c2Cc2cc(O)ccc2-3)c1`: the 50% inhibitory concentration (IC50) with HCT-15 is 2710 nM; in the assay with DU-145, 1410 nM; in the assay with HeLa, 3850 nM; with T47D, 790 nM. Also, the results for the inhibition in assay [1], in assay [2] and in assay [3] were 17.5%, 66.2% and 0%, respectively.
As to `Oc1ccccc1-c1cc(-c2cccc(C(F)(F)F)c2)nc2c1Cc1cccc(O)c1-2`, the half-maximal inhibitory concentration (IC50) amounted to 2840 nM with HCT-15, 3380 nM in the assay on DU-145, 5730 nM in the assay with HeLa and 980 nM with T47D. Also, the figures for the inhibition in assay [1], in assay [2] and in assay [3] were 2.7%, 95.8% and 4.3%, respectively.
Regarding `Oc1cccc(-c2cc(-c3ccccc3Cl)nc3c2Cc2cccc(O)c2-3)c1`, the IC50 stood at 3820 nM in the assay on HCT-15, 240 nM in the assay on DU-145, 5250 nM with HeLa and 120 nM with T47D. The inhibition in assay [1] turned out to be 6.3%; in assay [2] it was 89.6%; in assay [3], 10.9%.
Regarding `Oc1ccc(-c2cc(-c3ccc(F)cc3)nc3c2Cc2cccc(O)c2-3)cc1`, the IC50 in the assay on HCT-15 was over 50000 nM; with DU-145 it was over 50000 nM; with HeLa, over 50000 nM; with T47D, 24500 nM. In addition, the results for the inhibition in assay [1], in assay [2] and in assay [3] were 1.2%, 75.3% and 1.4%, respectively.
In the case of `Oc1ccc(-c2cc(-c3cccc(Cl)c3)nc3c2Cc2cc(O)ccc2-3)cc1`, the IC50 in the assay with HCT-15 was 750 nM; with DU-145, 1200 nM; in the assay with HeLa it was 1170 nM; in the assay on T47D, 1200 nM. The inhibition in assay [1] is 0%; in assay [2], 100%; in assay [3] it was 31.9%.
Regarding `Oc1ccccc1-c1cc(-c2ccc(Cl)cc2)nc2c1Cc1c(O)cccc1-2`, the IC50 with HCT-15 turned out to be 2310 nM; in the assay with DU-145, 610 nM; with HeLa, 1960 nM; in the assay with T47D, 1250 nM. Moreover, the inhibition in assay [1] worked out at 14.5%; in assay [2], 80.3%; in assay [3], 7%.
Turning to `Oc1ccc(-c2cc(-c3cccc(Cl)c3)c3c(n2)-c2ccc(O)cc2C3)cc1`, the IC50 is 5690 nM in the assay on HCT-15, 2250 nM in the assay with DU-145, 5940 nM in the assay with HeLa and 1860 nM in the assay on T47D. For the same compound, the inhibition is 8.8% in assay [1], 73.9% in assay [2] and 3.3% in assay [3].

The IC50 is the midpoint of a concentration-inhibition curve. Lower therefore signals inhibition by little substance. A word on the inhibition: it is the percentage by which the read-out fell short of the control.
